{"source": "patent US6338963B1", "about": "“Use of carbon monoxide dependent guanylyl cyclase modifiers to stimulate neuritogenesis” (NeoTherapeutics, Inc., priority 1994, dated 2002)", "key": {"PC12 cells": {"tested_on": "PC12 cells", "experiment": "Neuritogenesis in PC12 cells", "assay_type": "cell-based, rat", "set-up": "key to Neuritogenesis: fraction of cells bearing neurites (mean ± SEM)", "outline": "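Rat pheochromocytoma PC12 cells on poly-ornithine were treated with AIT-082 alongside saturating NGF (40 ng/ml) from plating for 48 h, then formalin-fixed. Neurites ≥1 cell-body diameter with growth cone were counted; the neurite-bearing fraction is expressed relative to NGF alone (100%), mean ±SEM of 6 cultures.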"}, "NGF mRNA": {"tested_on": "NGF mRNA", "experiment": "Northern/slot blot of neurotrophin mRNA from astrocytes: NGF", "assay_type": "cell-based, NIH Swiss mice", "set-up": "key to NGF mRNA: The conditions which produced a detectable amount of each of the neurotrophin mRNAs are indicated by a “+”; a “++” indicating that at least twice the detectable amount was present; Those blots which were negative are indicated by a “−”", "details": "for NGF mRNA: 24 hours", "description": "Induction of neurotrophin mRNA was determined by northern blot analysis of astrocytes cultured with AIT-082, NGF, or both. The cells were harvested and RNA extracted at 24 hours after treatment.\nMore particularly, astrocytes from the cerebral cortex of NIH Swiss mice (Harlan) were isolated. Briefly, newborn pups (0-24 hours) were decapitated. Their brains were removed under aseptic conditions and were placed in modified Dulbecco's medium (DMEM) containing 20% heat-inactivated horse serum (Hyclone) (“complete medium”). The neopallium was then dissected from each cerebral hemisphere and minced into 1 mm cubes.\nThe astrocytes were then isolated by mechanical dissociation. The cubes were vortexed at maximum speed for one minute. The cell suspension was then passed first through 75 mm Nitex then through 10 mm Nitex. The resulting cell suspension was diluted in complete medium to a final concentration of one brain per 10 ml of complete medium. Ten milliliters of the diluted cell suspension was added to each 100 mm Falcon tissue culture plate (Fisher). After 3 days the medium was replaced with 10 ml fresh complete medium and subsequently was replaced twice weekly with DMEM containing 10% heat inactivated horse serum (“growth medium”). After two weeks in culture the astrocytes formed a confluent monolayer.\nFor RNA extraction, astrocytes were trypsinized. The astrocytes were then replated onto 100 mm PORN coated plates at a cell density of 10^6 cells per plate (10 ml growth medium). After 2 hrs PBS, guanosine (Guo), or GTP at 10 mM were added to the appropriate plates. Total RNA was harvested from 1.5×10^7 cells for each treatment, 4 and 24 hrs after treatment using TRIzol reagent and supplier protocol (GIBCO BRL/Life Technologies, Inc.). For slot blots, total RNA was bound to Hybond-N filters (Amersham/United States Biochemicals) as described in Transfer and Immobilization of Nucleic Acids and Proteins to S & S Solid Supports (S and S Protocols: Schleicher & Schuell, New Hampshire, USA). Northern blots were also performed using […] total RNA from each sample. These were electrophoresed in 1% agarose gels containing formaldehyde and blotted onto Hybond-N filters according to S and S protocols.\nThe blots were probed with ^32P-labeled cDNA (NGF, NT-3 and BDNF probes) or oligonucleotide probe (FGF-2) by hybridization in Piperazine-N,N′-bis-(2-ethanesulfonic acid) (PIPES) buffer (50 mM PIPES, pH 6.8; 50 mM NaH2PO4; 0.1 M NaCl; 5% SDS and 1 mM EDTA) overnight at 50° C. […] Various concentrations ([…] of total RNA), as determined by spectrophotometry, of each sample were blotted and probed so that quantification could be done after insuring a linear film response. Quantification was performed using MCID Image Analysis (St. Catherine's, Ontario, Canada). […]"}, "NGF": {"tested_on": "NGF", "experiment": "Western blot of astrocyte cytosolic proteins: NGF", "assay_type": "cell-based, rat", "description": "Western blot analysis of cytosolic proteins from cultured astrocytes was performed to detect the factors NGF and TGFβ2. The results are shown in FIG. 58A for NGF at 6 and 12 hours and in FIG. 58B for TGFβ2 at 6 and 12 hours.\nWestern blot analysis of cytosolic proteins deriving from cultured astrocytes treated for 6 or 12 hours with 100 μM AIT-082 was performed. AIT-082 is able to promote the production of neurotrophic factors from rat cultured astrocytes as measured by Western blot analysis. The results are shown in FIG. 62A for NGF and in FIG. 62B for TGFβ2. Electrophoresis was performed in 12% (for NBF) or 15% (for TGFβ2) SDS-PAGE (20 μg of total protein per lane). The separated proteins were transferred onto a PVDF membrane (Bio-Rad Laboratories, Italy)."}}}
{"smiles": "O=C(CCn1cnc2c(=O)[nH]cnc21)Nc1ccc(C(=O)O)cc1", "note": "[AIT-082, N-4-carboxyphenyl-3-(6-oxohydropurin-9-yl)propanamide]", "values": [{"measurement": "Neuritogenesis", "setting": "PC12 cells; AIT-082 10 μM, L-NAME 0.1 μM", "result": "0.220 ± 0.010"}, {"measurement": "Neuritogenesis", "setting": "PC12 cells; AIT-082 10 μM, L-NAME 1.0 μM", "result": "0.302 ± 0.027"}, {"measurement": "Neuritogenesis", "setting": "PC12 cells; AIT-082 10 μM, L-NAME 10.0 μM", "result": "0.254 ± 0.018"}, {"measurement": "Neuritogenesis", "setting": "PC12 cells; AIT-082 10 μM, L-NAME None", "result": "0.254 ± 0.008"}, {"measurement": "Neuritogenesis", "setting": "PC12 cells; AIT-082 100 μM, L-NAME 0.1 μM", "result": "0.257 ± 0.016"}, {"measurement": "Neuritogenesis", "setting": "PC12 cells; AIT-082 100 μM, L-NAME 1.0 μM", "result": "0.232 ± 0.019"}, {"measurement": "Neuritogenesis", "setting": "PC12 cells; AIT-082 100 μM, L-NAME 10.0 μM", "result": "0.289 ± 0.006"}, {"measurement": "Neuritogenesis", "setting": "PC12 cells; AIT-082 100 μM, L-NAME None", "result": "0.309 ± 0.027"}, {"measurement": "Proportion of cells bearing neurites, AIT-082 + NGF", "setting": "PC12 cells; AIT-082 10 mM + NGF 40 ng/ml, no inhibitor", "result": "0.26 ± 0.01"}, {"measurement": "Proportion of cells bearing neurites, AIT-082 alone", "setting": "PC12 cells; AIT-082 10 mM, no NGF, no inhibitor, 48 hours", "result": "0.2 ± 0.02"}, {"measurement": "Proportion of cells bearing neurites, AIT-082 + NGF", "setting": "PC12 cells; AIT-082 + NGF 40 ng/ml, Methemoglobin 1 μM", "result": "0.17 ± 0.02"}, {"measurement": "Proportion of cells bearing neurites, AIT-082 + NGF", "setting": "PC12 cells; AIT-082 + NGF 40 ng/ml, Methylene Blue 5 μM", "result": "0.10 ± 0.01"}, {"measurement": "Proportion of cells bearing neurites, AIT-082 + NGF", "setting": "PC12 cells; AIT-082 + NGF 40 ng/ml, Zn Protoporphyrin IX 1 μM", "result": "0.13 ± 0.01"}, {"measurement": "concentration effective in stimulating neuritogenesis and enhancing NGF-stimulated neuritogenesis", "setting": "PC12 cells; PC12 cells, 48 hours", "result": 1, "unit": "mM"}, {"measurement": "neuritogenesis compared with NGF", "setting": "PC12 cells; PC12 cells, 48 hours", "result": "as effective as NGF"}, {"measurement": "enhancement of the optimal effects of NGF on neuritogenesis", "setting": "PC12 cells; with 40 ng/ml NGF, 48 hours", "result": 30, "unit": "%"}, {"measurement": "NGF mRNA", "setting": "NGF mRNA; AIT-082 100 mM", "result": "++"}, {"measurement": "NGF mRNA", "setting": "NGF mRNA; AIT-082 + NGF (40 ng/ml)", "result": "+"}, {"measurement": "intracellular levels of NGF", "setting": "NGF; 100 μM AIT-082, 6 or 12 hours", "result": "increased in time-dependent manner"}]}
{"smiles": "Nc1nc2c(ncn2[C@@H]2O[C@H](CO)[C@@H](O)[C@H]2O)c(=O)[nH]1", "note": "[guanosine]", "values": [{"measurement": "neurite outgrowth in the absence of NGF", "setting": "PC12 cells; compound alone", "result": "slightly increased the proportion of cells with neurites"}, {"measurement": "enhancement of NGF-induced neurite outgrowth", "setting": "PC12 cells; in the presence of NGF, 48 hours", "result": "enhanced the neurite outgrowth induced by NGF"}, {"measurement": "NGF mRNA in astrocytes", "setting": "NGF mRNA; guanosine, 4 hours after addition", "result": "increased"}, {"measurement": "intracellular content of NGF", "setting": "NGF; guanosine, 6 and 12 hours", "result": "increased the intracellular content of NGF and TGFβ2 in time-dependent fashion"}]}
